1 compound from patent US20100226992A1 (ALCON RESEARCH, LTD., priority 2009, published 2010) can be followed below.

pIC50: −log10 of the molar value.

In the test the test system is FGFR. Put plainly: Kinase inhibition, cell-free enzymatic assay. Type of test: biochemical. The note with it: 1 mM ATP.

A word on the pIC50: it is −log10 of the IC50, conventionally taken in molar units. Low readings indicate a large IC50, high ones a small IC50. Take `Cc1ccc(F)c(NC(=O)Nc2ccc(-c3cccc4[nH]nc(N)c34)cc2)c1` [RTK Inhibitor, N-[4-(3-amino-1H-indazol-4-yl)phenyl]-N′-(2-fluoro-5-methylphenyl)urea]: the pIC50 was below 4.90.
